In publication PMC12687449, “Membrane disruption attenuates agonist potency in prostanoid receptors” (Biochemical Journal, 2025):
Blank lines part the entries; values can stand above or below the compound they belong to. No end group written: not given here.

What was measured:
[1] = biological target: EP4 receptor conformation sensor (Homo sapiens, UniProt P35408); assay: FRET-based EP4 receptor conformation sensor stably expressed in HEK293 cells (intact, saponin-permeabilized, membrane fragments); type: cell-based; details: for response of about 10 times EC50 normalized to saturating PGE2 concentration: 830 nM 11-deoxy PGE2, pipetting protocol; for Schild plot slope value of fitted linear regression / pKB (Schild plot, abscissa intercept): versus PGE2
Chain of EP4 receptor conformation sensor (P35408 1-332 limits assumed): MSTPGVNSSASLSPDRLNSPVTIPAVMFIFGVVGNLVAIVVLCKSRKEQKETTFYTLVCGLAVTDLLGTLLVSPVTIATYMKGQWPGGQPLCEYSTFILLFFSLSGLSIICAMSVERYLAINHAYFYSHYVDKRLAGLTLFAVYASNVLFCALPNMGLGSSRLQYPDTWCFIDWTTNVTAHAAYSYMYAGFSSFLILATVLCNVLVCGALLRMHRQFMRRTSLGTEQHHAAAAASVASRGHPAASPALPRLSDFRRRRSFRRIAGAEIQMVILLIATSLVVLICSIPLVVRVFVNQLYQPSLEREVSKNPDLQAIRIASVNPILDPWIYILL
Protocol: (§1) The cells were washed once with external buffer and subsequently incubated 2 minutes for single-cell FRET measurements or 10 minutes for BRET measurements in 0.05% saponin (AppliChem, Darmstadt, Germany) dissolved in internal buffer. Afterward, the cells were washed five times for single-cell FRET measurements or three times for BRET measurements with internal buffer.
HEK293 cells stably expressing the EP4 receptor, IP receptor, or DP2 receptor conformation sensor were seeded on 15 cm Ø dishes and grown until optical confluence. The cells were washed once with Dulbecco’s PBS (Capricorn Scientific GmbH), without Ca & Mg and Phenol Red (phosphate-buffered saline, PBS). After adding 5 ml PBS to the cells, the dish was treated with liquid nitrogen until the solution was visibly frozen. These dishes were stored at −80°C until the measurements were carried out. On the day of the measurement, the dishes were removed from the freezer and stored at room temperature until the buffer solution had thawed. The material was collected with a cell scraper and centrifuged (5000 rpm/5 min). The supernatant was discarded, the pellet containing the membrane fragments was resuspended with external buffer containing 0.1% BSA and seeded on microplates. […]

[2] = biological target: T1, α2A-AR conformation sensor CAM (Mus musculus, UniProt Q01338); assay: FRET-based α2A-AR CAM conformation sensor, single-cell measurements in HEK293 cells; design: species or system murine
T1 sequence (Q01338 1-465): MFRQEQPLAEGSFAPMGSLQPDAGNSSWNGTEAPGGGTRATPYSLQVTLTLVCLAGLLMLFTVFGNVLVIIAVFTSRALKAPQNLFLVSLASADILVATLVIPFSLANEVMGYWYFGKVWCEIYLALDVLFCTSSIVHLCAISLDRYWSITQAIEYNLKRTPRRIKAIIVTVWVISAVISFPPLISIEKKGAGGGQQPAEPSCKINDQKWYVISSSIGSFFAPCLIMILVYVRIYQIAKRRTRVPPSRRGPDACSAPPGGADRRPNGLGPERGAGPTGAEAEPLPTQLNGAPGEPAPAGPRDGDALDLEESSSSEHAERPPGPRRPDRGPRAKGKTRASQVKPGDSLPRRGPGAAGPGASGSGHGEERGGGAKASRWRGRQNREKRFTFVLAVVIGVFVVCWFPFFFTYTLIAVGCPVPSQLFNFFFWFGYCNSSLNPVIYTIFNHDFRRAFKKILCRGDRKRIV
Protocol: as §1
(§2) The coverslips loaded with stably transfected HEK293 cells containing either the FFA3 receptor, α2A-AR CAM, or ETB receptor conformation sensors were clamped in an Attofluor^TM cell chamber and were washed once with external buffer. Afterward, they were side by side either permeabilized or directly measured at room temperature by the use of an inverted microscope (Elipse Ti2, Nikon, Düsseldorf, Germany), equipped with a 100× oil immersion objective (Plan Apo λ 100 x/1.45 oil ∞/0.17 WD 0.13, Nikon, Düsseldorf, Germany) and dual excitation and dual emission imaging capabilities. […] The fluorescence emission of mT2 and the respective YFP variant was simultaneously collected by a second beamsplitter (488, Chroma, Bellows Falls, Vermont, U.S.A.) and two emission filters (mT2: 474/27, Chroma; YFP: 544/23, Chroma). […] For all single-cell FRET experiments, cells were prospectively selected based on a continuous plasma-membrane fluorescence rim and appropriate fluorescence distribution to ensure a PM-dominant receptor signal. […]

[3] = biological target: T2, FFA3 receptor conformation sensor (Homo sapiens, UniProt O14843); assay: FRET-based FFA3 receptor conformation sensor, single-cell measurements in HEK293 cells
T2 construct: mT2 insertion and truncation after G314; expressed in transfected cells
T2 sequence (O14843 1-314 limits assumed): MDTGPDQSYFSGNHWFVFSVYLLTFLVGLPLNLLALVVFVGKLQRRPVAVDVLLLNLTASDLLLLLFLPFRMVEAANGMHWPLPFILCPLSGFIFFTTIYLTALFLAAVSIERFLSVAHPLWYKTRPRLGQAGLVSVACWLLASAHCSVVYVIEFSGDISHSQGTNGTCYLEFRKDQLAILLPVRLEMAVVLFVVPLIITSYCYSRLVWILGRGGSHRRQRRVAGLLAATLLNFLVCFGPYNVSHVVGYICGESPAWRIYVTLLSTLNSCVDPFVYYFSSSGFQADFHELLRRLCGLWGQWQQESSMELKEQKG
Protocol: as §1, §2

ETB receptor = biological target: T3, ETB receptor (Homo sapiens, UniProt P24530); assay: BRET-based G protein activation, wildtype ETB receptor + Gαq biosensor in HEK293T cells; type: cell-based
T3 construct: expressed in transfected cells; host or cells: HEK293T (transient)
T3 sequence (P24530 27-442): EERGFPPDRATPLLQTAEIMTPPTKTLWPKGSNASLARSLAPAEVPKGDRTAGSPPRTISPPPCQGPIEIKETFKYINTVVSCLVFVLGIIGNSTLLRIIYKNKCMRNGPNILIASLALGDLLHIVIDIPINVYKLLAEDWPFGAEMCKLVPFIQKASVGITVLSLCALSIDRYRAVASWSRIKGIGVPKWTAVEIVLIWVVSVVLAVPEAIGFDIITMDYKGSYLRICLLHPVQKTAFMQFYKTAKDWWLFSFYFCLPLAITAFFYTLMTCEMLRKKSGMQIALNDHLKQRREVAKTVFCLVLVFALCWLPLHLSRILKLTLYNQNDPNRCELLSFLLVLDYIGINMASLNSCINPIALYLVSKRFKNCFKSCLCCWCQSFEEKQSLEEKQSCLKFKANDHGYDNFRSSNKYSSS
Protocol: Two days before BRET measurements were performed, HEK293T cells were transiently transfected with 3 µg of cDNAs containing TP receptor, ETB receptor, DP2 receptor, or S1P3 receptor and 3 µg of cDNAs containing Gβ3-T2A-cpVenus-Gγ9-IRES-Gαq-NLuc or Gβ3-T2A-cpVenus-Gγ9-IRES-Gαo1-NLuc using linear 25 kDa PEI reagent (polyethylenimine, PolyScience Inc., Hirschberg an der Bergstraße, Germany). The ratio between DNA and PEI was 1:3, and 50 µl serum-free DMEM was added per 1 µg DNA. The same amount of serum-free DMEM was also added separately to the PEI solution. DNA-DMEM and PEI-DMEM mixtures were incubated for 5 minutes, followed by incubation of the final mixture for another 10 minutes. […]
Two days before the actual measurement, HEK293T cells were transiently transfected and seeded on microplates. […] The measurements were performed using a Spark 20M plate reader (Tecan) at 37°C. Initially, the cells were measured for the baseline emission ratio. After the baseline measurement, 20 µl of external or internal buffer containing differing concentrations of either U-46619, 4-Ala ET-1, PGD,2 or S1P or external or internal buffer alone were added to the cells and measured. […] The cells were measured from the top and the donor luminescence (NLuc) was recorded at 415 to 470 nm and the acceptor luminescence (cpVenus) at 520 to 590 nm. Data were recorded using SparkControl^TM software. […]

Compound: CCCCC[C@H](O)/C=C/[C@H]1CCC(=O)[C@@H]1C/C=C\CCCC(=O)O [11-deoxy PGE2]
- pEC50 ([1]; intact HEK293 cells, multiple-cell FRET on plate reader): 7.08
- response of about 10 times EC50 normalized to saturating PGE2 concentration ([1]; intact cells): 91% ± 3
- response of about 10 times EC50 normalized to saturating PGE2 concentration ([1]; saponin-permeabilized cells): 50% ± 3

- Schild plot slope value of fitted linear regression ([1]; intact cells): 1.16
- pKB (Schild plot, abscissa intercept) ([1]; intact cells): 7.7
- Schild plot slope value of fitted linear regression ([1]; membrane fragments): 0.69
- pKB (Schild plot, abscissa intercept) ([1]; membrane fragments): 6.6
Compound: CCCCc1nn(-c2ccccc2C(F)(F)F)c(=O)n1Cc1ccc(-c2ccccc2S(=O)(=O)NC(=O)c2sccc2C)cc1 [L-161,982]

- pEC50 ([2]; intact cells): 6.10
- pEC50 ([2]; saponin-permeabilized cells): 5.63
Compound: NC[C@H](O)c1ccc(O)c(O)c1 [norepinephrine]

Compound: CCC(=O)O [propionate, propionic acid]
- pEC50 ([3]; intact cells): 3.92
- pEC50 ([3]; saponin-permeabilized cells): 3.84

- EC50 (ETB receptor; intact HEK293T cells): 8.91 nM
- EC50 (ETB receptor; saponin-permeabilized cells with 1 µM GTP): 0.617 nM
Compound: ASASSLMDKEAVYFAHLDIIW-OH [4-Ala ET-1]
